This is an account of results in patent US6894058B1, “Use of 3-hydroxy-3-methylgutaryl coenzym a reductase inhibitors for the manufacture of a medicament for the treatment of diabetic neuropathy” (AstraZeneca AB, priority 1999, dated 2005).

For assay [1], the system named is Diabetic rats. In words: Saphenous nerve sensory conduction velocity in streptozotocin-diabetic rats. It counts as in vivo, Sprague-Dawley rats. The following applies: for Saphenous Nerve Sensory Conduction Velocity: group mean ± SEM (number of rats in brackets). Here is the method:
Sensory conduction velocity in saphenous nerve was measured between the groin and ankle (as previously described by Cameron et al. Quarterly Journal of Experimental Physiology, 1989, vol. 74, pages 917-926).

The subject of assay [2] is Diabetic rats. In words: Sciatic nerve blood flow by hydrogen clearance microelectrode polarography in streptozotocin-diabetic rats. The following applies: for Sciatic Nerve Blood Flow: group mean ± SEM (number of rats in brackets); for nerve blood flow, effect in words: animal model of diabetic neuropathy.
For assay [3], the system named is Diabetic rats. In words: Sciatic nerve motor conduction velocity in streptozotocin-diabetic rats. It counts as in vivo, Sprague-Dawley rats. The following applies: for Sciatic Nerve Motor Conduction Velocity: group mean ± SEM (number of rats in brackets); for nerve conduction velocity (NCV), effect in words: animal model of diabetic neuropathy. The method, then:
Motor nerve conduction velocity was measured (as previously described by Cameron et al, Diabetologia, 1993, Vol. 36, pages 299-304) between sciatic notch and knee in the nerve branch to tibialis anterior muscle, which is representative of the whole sciatic nerve in terms of susceptibility to diabetes and treatment effects.

Setting [4] is: Diabetic + 2 weeks of dosing at 20 mg/kg.
The mark [5] stands for this setting: Rattus norvegicus, Dose response, 5 groups of 8 rats, dose ranged from 0.3-20 mg/kg.
Setting [6] is: Diabetic + 2 weeks of dosing at 50 mg/kg.

For the compound `CC(C)c1nc(N(C)S(C)(=O)=O)nc(-c2ccc(F)cc2)c1/C=C/[C@@H](O)C[C@@H](O)CC(=O)O` [The AGENT, (E)-7-[4-(4-fluorophenyl)-6-isopropyl-2-[methyl(methylsulfonyl)amino]pyrimidin-5-yl](3R,5S)-3,5-dihydroxyhept-6-enoic acid], in the assay with Diabetic rats [1] (setting [4]), the “Saphenous Nerve Sensory Conduction Velocity” value is 60.57 m/s ± 0.83 (8). For the same compound, the results for the ED50 with Diabetic rats [1] (setting [5]) and with Diabetic rats [3] (setting [5]) were 0.9 mg/kg and 2.3 mg/kg, respectively. Moreover, the “Sciatic Nerve Blood Flow” value in the assay on Diabetic rats [2] (setting [4]) was 16.19 ± 0.51 ml/min/100 g (8). For the same compound, the “nerve blood flow, effect in words” value in the assay with Diabetic rats [2] was “improvement”. Moreover, the “Sciatic Nerve Motor Conduction Velocity” value with Diabetic rats [3] (setting [4]) is on record as 63.34 ± 0.61 (8). In addition, in the assay with Diabetic rats [3], the “nerve conduction velocity (NCV), effect in words” value is given as “improvement”.

Turning to `CC(C)c1c(C(=O)Nc2ccccc2)c(-c2ccccc2)c(-c2ccc(F)cc2)n1CC[C@@H](O)C[C@@H](O)CC(=O)O` [Atorvastatin, atorvastatin], the entries for the “Saphenous Nerve Sensory Conduction Velocity” value in the assay on Diabetic rats [1] (setting [4]) and with Diabetic rats [1] (setting [6]) were 59.77 m/s ± 0.93 (6) and 60.72 m/s ± 0.94 (6), respectively. Besides, the “Sciatic Nerve Blood Flow” value with Diabetic rats [2] (setting [6]) is listed as 16.96 ± 1.39 ml/min/100 g (6). Besides, the “nerve blood flow, effect in words” value with Diabetic rats [2] is “improvement”. Besides, the “Sciatic Nerve Motor Conduction Velocity” value in the assay with Diabetic rats [3] (setting [4]) was 61.53 ± 0.76 (6); in the assay with Diabetic rats [3] (setting [6]), 63.59 ± 0.69 (6). Also, the “nerve conduction velocity (NCV), effect in words” value in the assay with Diabetic rats [3] is listed as “improvement”.
